The values that follow come from patent US12509453B2, “BRM/BRG1 inhibitors and uses thereof” (Foghorn Therapeutics Inc., priority 2019, dated 2025).

Each structure is given as a SMILES string. Some results are limits rather than exact numbers.

One test addresses T1, BRM (Homo sapiens, UniProt P51531).
T1 construct: made in house; host or cells: High Five insect cells
The test is described as follows: ATPase catalytic activity assay (ADP-Glo), BRM. The settings on record: 30 nM BRM, 400 μM ATP; for IC50: 20 nM salmon sperm DNA, read-out: BRM IP50 (μM)*. It is filed as biochemical. How it is done: (§1) The ATPase catalytic activity of BRM or BRG-1 was measured by the in vitro biochemical assay using ADP-Glo™ (Promega, V9102). The ADP-Glo™ kinase assay is performed in two steps once the reaction is complete. The first step is to deplete any unconsumed ATP in the reaction. The second step is to convert the reaction product ADP to ATP, which will be utilized by the luciferase to generate luminesce and be detected by a luminescence reader, such as Envision.
(§2) The assay reaction mixture (10 μL) contains 30 nM of BRM or BRG-1, 20 nM salmon sperm DNA (from Invitrogen, UltraPure™ Salmon Sperm DNA Solution, cat #15632011), and 400 μM of ATP in the ATPase assay buffer, which comprises of 20 mM Tris, pH 8, 20 mM MgCl2, 50 mM NaCl, 0.1% Tween-20, and 1 mM fresh DTT (Pierce™ DTT (Dithiothreitol), cat #20290). The reaction is initiated by the addition of the 2.5 μL ATPase solution to 2.5 μL ATP/DNA solution on low volume white Proxiplate-384 plus plate (PerkinElmer,cat #6008280) and incubates at room temperature for 1 hour. Then following addition of 5 μL of ADP-Glo™ Reagent provided in the kit, the reaction incubates at room temperature for 40 minutes. Then 10 μL of Kinase Detection Reagent provided in the kit is added to convert ADP to ATP, and the reaction incubates at room temperature for 60 minutes. Finally, luminescence measurement is collected with a plate-reading luminometer, such as Envision.
(§3) The ADP-Glo™ kinase assay is performed in two steps once the reaction is complete. The first step is to deplete any unconsumed ATP in the reaction. The second step is to convert the reaction product ADP to ATP, which will be utilized by the luciferase to generate luminesce and be detected by a luminescence reader, such as Envision.
as §2, with “BRG1,” for “BRG-1,”

In a further test the target is T2, BRG-1 (Homo sapiens, UniProt P51532).
T2 construct: made in house; host or cells: High Five insect cells
T2 sequence (P51532 whole entry): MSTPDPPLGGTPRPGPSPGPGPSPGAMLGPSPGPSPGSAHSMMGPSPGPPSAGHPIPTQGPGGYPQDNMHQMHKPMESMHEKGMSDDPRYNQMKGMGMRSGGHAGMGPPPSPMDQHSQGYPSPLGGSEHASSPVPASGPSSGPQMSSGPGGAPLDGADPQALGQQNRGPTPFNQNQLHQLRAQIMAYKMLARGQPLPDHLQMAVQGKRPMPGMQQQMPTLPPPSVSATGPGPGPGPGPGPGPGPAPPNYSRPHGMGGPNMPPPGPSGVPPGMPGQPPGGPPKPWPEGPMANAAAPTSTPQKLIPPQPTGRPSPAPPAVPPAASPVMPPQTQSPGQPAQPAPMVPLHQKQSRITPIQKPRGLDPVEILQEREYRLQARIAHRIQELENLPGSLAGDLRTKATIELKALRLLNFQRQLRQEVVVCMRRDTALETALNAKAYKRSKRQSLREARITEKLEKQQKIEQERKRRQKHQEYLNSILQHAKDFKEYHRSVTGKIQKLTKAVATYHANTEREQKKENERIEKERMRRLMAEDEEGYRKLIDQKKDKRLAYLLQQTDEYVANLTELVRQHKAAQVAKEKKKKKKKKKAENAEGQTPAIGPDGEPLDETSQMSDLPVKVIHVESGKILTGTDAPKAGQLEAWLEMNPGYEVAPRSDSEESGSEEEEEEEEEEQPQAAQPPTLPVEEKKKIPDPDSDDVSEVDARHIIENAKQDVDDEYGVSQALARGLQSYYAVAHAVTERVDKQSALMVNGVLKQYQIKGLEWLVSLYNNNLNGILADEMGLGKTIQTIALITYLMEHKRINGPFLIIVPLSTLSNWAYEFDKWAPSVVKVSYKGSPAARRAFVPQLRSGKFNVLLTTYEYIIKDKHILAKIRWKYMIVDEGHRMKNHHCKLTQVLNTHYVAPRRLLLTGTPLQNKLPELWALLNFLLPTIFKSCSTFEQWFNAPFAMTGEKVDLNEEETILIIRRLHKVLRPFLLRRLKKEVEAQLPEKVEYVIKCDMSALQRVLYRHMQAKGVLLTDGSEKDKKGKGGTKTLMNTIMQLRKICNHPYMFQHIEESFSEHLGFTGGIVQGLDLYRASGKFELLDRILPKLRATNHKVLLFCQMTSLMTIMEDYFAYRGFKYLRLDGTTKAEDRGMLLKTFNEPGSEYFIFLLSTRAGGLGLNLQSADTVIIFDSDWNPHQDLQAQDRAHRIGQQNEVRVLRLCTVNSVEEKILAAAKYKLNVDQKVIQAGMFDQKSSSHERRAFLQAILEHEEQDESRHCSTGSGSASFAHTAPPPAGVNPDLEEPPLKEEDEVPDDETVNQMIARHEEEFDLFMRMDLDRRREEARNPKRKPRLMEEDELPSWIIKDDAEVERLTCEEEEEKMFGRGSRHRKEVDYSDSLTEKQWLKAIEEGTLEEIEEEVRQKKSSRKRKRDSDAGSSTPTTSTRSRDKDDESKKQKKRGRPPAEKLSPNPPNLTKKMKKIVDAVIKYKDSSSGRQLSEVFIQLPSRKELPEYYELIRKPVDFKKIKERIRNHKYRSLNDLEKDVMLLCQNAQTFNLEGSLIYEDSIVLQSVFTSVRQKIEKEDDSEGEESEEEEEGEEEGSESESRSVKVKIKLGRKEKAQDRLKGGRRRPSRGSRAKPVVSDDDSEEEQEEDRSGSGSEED
In words: ATPase catalytic activity assay (ADP-Glo), BRG-1. It is filed as biochemical. As to conditions: 30 nM BRG-1, 400 μM ATP; for IC50: 20 nM salmon sperm DNA, read-out: BRG1 IP50 (μM)*; for Emax: read-out: BRG1 Max % Inhibition. How it is done: as §1, §2, §3
as §2, with “BRG1,” for “BRG-1,”

T1 sequence (P51531 whole entry): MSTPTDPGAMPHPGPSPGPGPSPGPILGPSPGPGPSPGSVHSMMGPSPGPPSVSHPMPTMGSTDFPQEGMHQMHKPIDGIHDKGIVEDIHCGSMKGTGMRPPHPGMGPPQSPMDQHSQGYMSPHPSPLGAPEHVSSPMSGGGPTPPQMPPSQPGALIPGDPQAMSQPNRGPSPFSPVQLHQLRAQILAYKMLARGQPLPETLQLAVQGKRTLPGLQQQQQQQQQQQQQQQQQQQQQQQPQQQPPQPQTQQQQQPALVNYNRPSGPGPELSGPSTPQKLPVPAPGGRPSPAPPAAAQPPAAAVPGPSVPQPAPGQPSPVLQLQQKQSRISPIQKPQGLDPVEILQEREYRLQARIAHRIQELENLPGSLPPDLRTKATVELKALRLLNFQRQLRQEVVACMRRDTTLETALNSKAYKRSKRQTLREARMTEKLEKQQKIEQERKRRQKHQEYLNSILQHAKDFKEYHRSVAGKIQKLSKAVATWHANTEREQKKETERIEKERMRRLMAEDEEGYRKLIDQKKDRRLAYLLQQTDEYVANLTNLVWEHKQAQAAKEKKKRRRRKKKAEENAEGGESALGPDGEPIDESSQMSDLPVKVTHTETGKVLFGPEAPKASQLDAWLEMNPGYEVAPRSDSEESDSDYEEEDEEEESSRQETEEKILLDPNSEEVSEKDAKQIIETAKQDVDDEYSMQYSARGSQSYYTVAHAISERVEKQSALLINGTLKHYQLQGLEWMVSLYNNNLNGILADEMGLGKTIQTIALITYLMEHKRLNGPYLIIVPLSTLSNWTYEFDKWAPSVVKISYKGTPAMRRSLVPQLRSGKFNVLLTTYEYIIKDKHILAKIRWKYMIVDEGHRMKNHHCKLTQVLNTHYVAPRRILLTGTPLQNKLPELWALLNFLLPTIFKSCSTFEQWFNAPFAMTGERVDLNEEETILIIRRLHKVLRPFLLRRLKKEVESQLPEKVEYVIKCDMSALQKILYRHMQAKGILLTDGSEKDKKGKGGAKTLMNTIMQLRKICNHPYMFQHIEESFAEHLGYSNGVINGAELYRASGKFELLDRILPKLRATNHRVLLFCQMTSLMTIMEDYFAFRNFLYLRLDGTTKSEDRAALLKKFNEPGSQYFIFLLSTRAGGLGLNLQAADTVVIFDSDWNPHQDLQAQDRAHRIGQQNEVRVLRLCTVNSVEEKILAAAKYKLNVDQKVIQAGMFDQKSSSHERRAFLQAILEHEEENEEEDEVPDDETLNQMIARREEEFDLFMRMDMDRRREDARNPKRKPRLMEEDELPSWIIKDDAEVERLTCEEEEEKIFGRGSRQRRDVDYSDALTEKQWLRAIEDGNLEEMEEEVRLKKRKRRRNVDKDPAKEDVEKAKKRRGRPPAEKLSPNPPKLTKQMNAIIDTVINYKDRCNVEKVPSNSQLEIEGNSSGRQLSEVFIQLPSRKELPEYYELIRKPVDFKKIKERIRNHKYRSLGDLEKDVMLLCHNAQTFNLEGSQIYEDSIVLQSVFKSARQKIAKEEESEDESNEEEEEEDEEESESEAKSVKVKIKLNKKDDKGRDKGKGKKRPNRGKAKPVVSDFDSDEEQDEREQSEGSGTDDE

Consider `Cc1c(C(=O)NCC(=O)Nc2nc(-c3cccc(N4C[C@@H](C)O[C@@H](C)C4)c3)cs2)cnn1C(C)(C)C` [Compound 42, 1-(tert-butyl)-N-(2-((4-(3-((2R,6S)-2,6-dimethylmorpholino)phenyl)thiazol-2-yl)amino)-2-oxoethyl)-5-methyl-1H-pyrazole-4-carboxamide], for which the IC50 at BRM and at BRG-1 was 0.1 to 1 µM throughout.
With `CC(C)S(=O)(=O)n1cc(C(=O)NCC(=O)Nc2nc(-c3cccc(-c4ccncc4)c3)cs2)c(Cl)c1Cl` [Compound 30, 4,5-dichloro-1-isopropylsulfonyl-N-[2-oxo-2-[[4-[3-(4-pyridyl)phenyl]thiazol-2-yl]amino]ethyl]pyrrole-3-carboxamide], at BRM, the “BRM Max % Inhibition” value is reported as greater than 50% and the IC50 is less than 0.1 µM. At BRG-1, the IC50 is greater than 5 µM and the Emax is less than 30%.
As for `CNC(=O)CN(C)c1cc(-c2cccc(-c3csc(NC(=O)CNC(=O)c4cc(C)n(S(C)(=O)=O)c4)n3)c2)ccn1` [Compound 46, 5-methyl-N-(2-((4-(3-(2-(methyl(2-(methylamino)-2-oxoethyl)amino)pyridin-4-yl)phenyl)thiazol-2-yl)amino)-2-oxoethyl)-1-(methylsulfonyl)-1H-pyrrole-3-carboxamide], the IC50 at BRM and at BRG-1 was less than 0.1 µM each time.
Take `Cc1cc(C(=O)NCC(=O)Nc2nc(-c3cccc(-c4ccn(C)n4)c3)cs2)cn1S(=O)(=O)C(C)C` [Compound 6, 1-(isopropylsulfonyl)-5-methyl-N-(2-((4-(3-(1-methyl-1H-pyrazol-3-yl)phenyl)thiazol-2-yl)amino)-2-oxoethyl)-1H-pyrrole-3-carboxamide]: at BRM, the “BRM Max % Inhibition” value is reported as greater than 90% and the IC50 fell in the range of 0.1 to 1 µM. Moreover, at BRG-1, the IC50 lay in the range of 1 to 5 µM and the Emax was greater than 50%.
The like results for `CC(C)S(=O)(=O)n1cc(C(=O)NCC(=O)Nc2nc(-c3cccc(N4CCC(O)CC4)c3)cs2)cc1Cl` [Compound 40, 5-chloro-N-(2-((4-(3-(4-hydroxypiperidin-1-yl)phenyl)thiazol-2-yl)amino)-2-oxoethyl)-1-(isopropylsulfonyl)-1H-pyrrole-3-carboxamide] were, in that order, greater than 80%, 0.1 to 1 µM, 1 to 5 µM and greater than 50%.
With `Cc1cc(-c2cccc(-c3csc(NC(=O)CNC(=O)c4cn(S(C)(=O)=O)c5ccccc45)n3)n2)ncn1` [Compound 23, N-(2-((4-(6-(6-methylpyrimidin-4-yl)pyridin-2-yl)thiazol-2-yl)amino)-2-oxoethyl)-1-(methylsulfonyl)-1H-indole-3-carboxamide], at BRM, the “BRM Max % Inhibition” value was greater than 90% and the IC50 is 0.1 to 1 µM. On BRG-1, the IC50 is 1 to 5 µM and the Emax is greater than 40%.
In the case of `Cc1nccc(-c2cccc(-c3csc(NC(=O)CNC(=O)c4cn(S(C)(=O)=O)c5ccccc45)n3)n2)n1` [Compound 22, N-(2-((4-(6-(2-methylpyrimidin-4-yl)pyridin-2-yl)thiazol-2-yl)amino)-2-oxoethyl)-1-(methylsulfonyl)-1H-indole-3-carboxamide], on BRM, the “BRM Max % Inhibition” value is greater than 80% and the IC50 was 0.1 to 1 µM. For the same compound, on BRG-1, the IC50 was 1 to 5 µM and the Emax is greater than 40%.
The like results for `Cc1c(C(=O)NCC(=O)Nc2nc(-c3cccc(-c4ccncc4)c3)cs2)cn(S(=O)(=O)C(C)C)c1C` [Compound 10, 1-(isopropylsulfonyl)-4,5-dimethyl-N-(2-oxo-2-((4-(3-(pyridin-4-yl)phenyl)thiazol-2-yl)amino)ethyl)-1H-pyrrole-3-carboxamide] were, in that order, greater than 70%, 0.1 to 1 µM, greater than 5 µM and less than 30%.
As to `Cc1cc(-c2cccc(-c3csc(NC(=O)CNC(=O)c4cn(S(=O)(=O)C(C)C)c5ccccc45)n3)c2)cc(C)n1` [Compound 34, N-(2-((4-(3-(2,6-dimethylpyridin-4-yl)phenyl)thiazol-2-yl)amino)-2-oxoethyl)-1-(isopropylsulfonyl)-1H-indole-3-carboxamide], on BRM, the “BRM Max % Inhibition” value is recorded as greater than 90% and the IC50 is less than 0.1 µM. Also, at BRG-1, the IC50 lay within 1 to 5 µM and the Emax was greater than 60%.
Take `C[C@@H]1CN(c2cccc(-c3csc(NC(=O)CNC(=O)c4cn(S(C)(=O)=O)c5ccccc45)n3)c2)C[C@H](C)O1` [Compound 26, N-(2-((4-(3-((cis)-2,6-dimethylmorpholino)phenyl)thiazol-2-yl)amino)-2-oxoethyl)-1-(methylsulfonyl)-1H-indole-3-carboxamide]: at BRM, the “BRM Max % Inhibition” value was greater than 90% and the IC50 lay within 0.1 to 1 µM. In addition, on BRG-1, the IC50 is 1 to 5 µM and the Emax was greater than 60%.
`Cc1cc(-c2cccc(-c3csc(NC(=O)CNC(=O)c4cn(S(=O)(=O)C(C)C)c(C)c4C)n3)c2)cc(C)n1` [Compound 12, N-(2-((4-(3-(2,6-dimethylpyridin-4-yl)phenyl)thiazol-2-yl)amino)-2-oxoethyl)-1-(isopropylsulfonyl)-4,5-dimethyl-1H-pyrrole-3-carboxamide]: on BRM, the “BRM Max % Inhibition” value is greater than 95% and the IC50 was less than 0.1 µM. In addition, at BRG-1, the IC50 lay in the range of 0.1 to 1 µM and the Emax was greater than 80%.
